Measured values as given in patent US10005744B2, “Compounds for the treatment or prevention of breast cancer” (JIANGSU ATOM BIOSCIENCE AND PHARMACEUTICAL CO., LTD., priority 2015, dated 2018).
Read-outs that look alike come from different tables or passages of the source.

Experiments:
Type in all cases: cell-based
[1] = tested on: human colon cancer cells HT29; experiment: Growth inhibition of human colon cancer cells HT29
Protocol: (§1) 1. Breast cancer cells MCF-7 (Luminal type cells) and MDA-MB-468 (basal-like cells, which are of the triple-negative type without epithelial-mesenchymal transition) were purchased from Cell Resource Center of Shanghai Institutes for Biological Sciences of the Chinese Academy of Sciences, and cultured with DMEM culture medium(containing 10% of fetal bovine serum, 10 U/mL of penicillin and 0.1 mg/mL of streptomycin) in a 5% CO2 incubator at 37[…] until the cell density was about 90%.
(§2) 2. The cells were inoculated to a 96-well plate at a cell population of 3×10^3/well and then cultured in the 5% CO2 incubator for 24 h at 37[…].
(§3) 3. Tested compounds of different concentration gradients were prepared by using the DMEM culture medium, and added into wells at 100 μL/well as tested compounds wells; and, the DMEM culture liquid was added into wells at 100 μL/well as negative control wells. At 37[…] and in the 5% CO2 incubator, the MCF-7 cells were cultured for 120 h, and MDA-MB-468 cells were cultured for 72 h.
(§4) 4. Resazurin (15 mg/50 mL), Methylene Blue (25 mg/10 mL), Potassium ferricyanide (0.329 g/100 mL) and Potassium ferrocyanide (0.422 g/100 mL) were dissolved into PBS (0.1 M, pH=7.4) to obtain Alamar Blue solution for standby.
(§5) 5. The cells were washed with PBS (0.1 M, pH=7.4) for two times, and the Alamar Blue solution was added into wells at 100 μL/well; and 100 μL of Alamar Blue solution was added into wells without cells to serve as blank control cells. The 96-well plate was placed into the 5% CO2 incubator at 37[…] and cultured for 3 h.
(§6) 6. The fluorescence value of the cells was detected at 530/590 nm by ELIASA Victor X4 (Perkin Elmer). The fluorescence value at each concentration was repetitively measured for 4 times to obtain an average value and a standard deviation. The cell viability was calculated by the following formula[User2]: […]
(§7) 7. The half inhibitory concentration (IC50) of the tested compounds againstt he cell lines was obtained according to the cell viability by Prism Graph software.
(§8) Growth inhibition tests of the tested compounds 7, 17, 18, 34, 35 and 41 on the human lung cancer cells H1299, human colon cancer cells HT29, human liver cancer cells SK-HEP-1, human colon cancer cells HCT116, human normal liver cells L-02 and WRL-68 were conducted, and the method refers to Embodiment 19 “Inhibition effects of the compounds on the growth of breast cancer cells MCF-7 and MDA-MB-468”.

[2] = tested on: human colon cancer cells HCT116; experiment: Growth inhibition of human colon cancer cells HCT116
Protocol: as §1, §2, §3, §4, §5, §6, §7, §8

[3] = tested on: human normal liver cells L-02; experiment: Growth inhibition of human normal liver cells L-02
Protocol: as §1, §2, §3, §4, §5, §6, §7, §8

[4] = tested on: human liver cancer cells SK-HEP-1; experiment: Growth inhibition of human liver cancer cells SK-HEP-1
Protocol: as §1, §2, §3, §4, §5, §6, §7, §8

[5] = tested on: human normal liver cells WRL-68; experiment: Growth inhibition of human normal liver cells WRL-68
Protocol: as §1, §2, §3, §4, §5, §6, §7, §8

[6] = tested on: human lung cancer cells H1299; experiment: Growth inhibition of human lung cancer cells H1299
Protocol: as §1, §2, §3, §4, §5, §6, §7, §8

MCF-7 = experiment: Growth inhibition of breast cancer cell line MCF-7 (Alamar Blue); details: Homo sapiens; for IC50: read-out: Half inhibitory concentration (IC50) against MCF-7
Protocol: as §1, §2, §3, §4, §5, §6, §7

MDA-MB-468 = experiment: Growth inhibition of breast cancer cell line MDA-MB-468 (Alamar Blue); details: Homo sapiens, read-out: Half inhibitory concentration (IC50) against MDA-MB-468
Protocol: as §1, §2, §3, §4, §5, §6, §7

[7] = HT-29, read-out: half inhibitory concentration (IC50)
[8] = HCT-116, read-out: half inhibitory concentration (IC50)
[9] = L02, read-out: half inhibitory concentration (IC50)
[10] = SK-HEP1, read-out: half inhibitory concentration (IC50)
[11] = WRL68, read-out: half inhibitory concentration (IC50)
[12] = NCI-H1299, read-out: half inhibitory concentration (IC50)

Row | SMILES | IC50 [1, 7] [nM] | IC50 [2, 8] [nM] | IC50 [3, 9] [nM] | IC50 [4, 10] [nM] | IC50 [5, 11] [nM] | IC50 [6, 12] [nM] | IC50 (MCF-7; MCF7, 120 h) [nM] | IC50 (MDA-MB-468; MDA-MB-468, 72 h) [nM] | IC50 ([1]; HT-29, HT29 cells, range stated over the six cell lines, read-out: half inhibitory concentration (IC50)) [nM] | IC50 ([2]; HCT-116, HCT116 cells, range stated over the six cell lines, read-out: half inhibitory concentration (IC50)) [nM] | IC50 ([3]; L02, L-02 cells, range stated over the six cell lines, read-out: half inhibitory concentration (IC50)) [nM] | IC50 ([4]; SK-HEP1, SK-HEP-1 cells, range stated over the six cell lines, read-out: half inhibitory concentration (IC50)) [nM] | IC50 ([5]; WRL68, WRL-68 cells, range stated over the six cell lines, read-out: half inhibitory concentration (IC50)) [nM] | IC50 ([6]; NCI-H1299, H1299 cells, range stated over the six cell lines, read-out: half inhibitory concentration (IC50)) [nM] | IC50 (MCF-7; MCF7, MCF-7 cells cultured 120 h with compound, Alamar Blue) [nM] | inhibition at 0.5 µM (MCF-7; MCF7, highest concentration, 500 nM, read-out: inhibition rate to MCF-7 cell line) [%] | IC50 (MDA-MB-468; MDA-MB-468 cells cultured 72 h with compound, Alamar Blue) [nM]
1 | Nc1ccc(-c2nc3ccccc3[se]2)cc1Br [Compound 7, 4-(benzoselenazole-2-yl)-2-bromoaniline] | > 10000 | > 10000 | > 10000 | > 10000 | > 10000 | > 10000 | 56.7 | 74.1 | – | – | – | – | – | – | – | – | –
2 | Nc1ccc(-c2nc3cc(F)ccc3[se]2)cc1Br [Compound 14, 2-bromo-4-(5-fluorobenzoselenazole-2-yl)aniline] | – | – | – | – | – | – | 188 | 138 | – | – | – | – | – | – | – | – | –
3 | Cc1cc(-c2nc3cc(F)ccc3[se]2)ccc1N [Compound 17, 4-(5-fluorobenzoselenazole-2-yl)-2-methylaniline] | > 10000 | > 10000 | > 10000 | > 10000 | > 10000 | > 10000 | 72.8 | 58.5 | – | – | – | – | – | – | – | – | –
4 | Cc1cc(-c2nc3cc(F)ccc3[se]2)cc(Br)c1N [Compound 18, 2-bromo-4-(5-fluorobenzoselenazole-2-yl)-6-methylaniline] | > 10000 | > 10000 | > 10000 | > 10000 | > 10000 | > 10000 | 91.9 | 70.9 | – | – | – | – | – | – | – | – | –
5 | Cc1ccc2[se]c(-c3ccc(N)c(C)c3)nc2c1 [Compound 26, 2-methyl-4-(5-methylbenzoselenazole-2-yl)aniline] | – | – | – | – | – | – | 134 | – | – | – | – | – | – | – | – | – | –
6 | Nc1ccc(-c2nc3cc(F)ccc3[se]2)cc1F [Compound 34, 2-fluoro-4-(5-fluorobenzoselenazole-2-yl)aniline] | > 10000 | > 10000 | > 10000 | > 10000 | > 10000 | > 10000 | 52.4 | 29.1 | – | – | – | – | – | – | – | – | –
7 | Nc1c(F)cc(-c2nc3cc(F)ccc3[se]2)cc1Br [Compound 35, 2-bromo-6-fluoro-4-(5-fluorobenzoselenazole-2-yl)aniline] | > 10000 | > 10000 | > 10000 | > 10000 | > 10000 | > 10000 | 41.6 | 39.7 | – | – | – | – | – | – | – | – | –
8 | Cc1ccc(-c2nc3cc(F)ccc3[se]2)cc1N [Compound 37, 5-(5-fluorobenzoselenazole-2-yl)-2-methylaniline] | – | – | – | – | – | – | 450 | 114 | – | – | – | – | – | – | – | – | –
9 | Nc1c(F)cc(-c2nc3cc(F)ccc3[se]2)cc1F [Compound 41, 2,6-difluoro-4-(5-fluorobenzoselenazole-2-yl)aniline] | > 10000 | > 10000 | > 10000 | > 10000 | > 10000 | > 10000 | 56.8 | 20.1 | – | – | – | – | – | – | – | – | –
10 | CC(=O)O[C@H]1C(=O)[C@@]2(C)[C@H]([C@H](OC(=O)c3ccccc3)[C@]3(O)C[C@H](OC(=O)[C@H](O)[C@@H](NC(=O)c4ccccc4)c4ccccc4)C(C)=C1C3(C)C)[C@]1(OC(C)=O)CO[C@@H]1C[C@@H]2O [Paclitaxel, paclitaxel, reference compound] | – | – | – | – | – | – | – | – | 1.59 to 15.3 | 1.59 to 15.3 | 1.59 to 15.3 | 1.59 to 15.3 | 1.59 to 15.3 | 1.59 to 15.3 | 4.6 | 70 | 4.43
